Drawing on PubChem BioAssay AID330 (DTP/NCI, 2004), this text covers T/C for 23 compounds.

Inconclusive results and toxic doses are left out.

This assay concerns P388 leukemia ip, CD2F1 mice, survival T/C. The assay is described as follows: NCI In Vivo Anticancer Drug Screen. Data for tumor model P388 Leukemia (intraperitoneal) in CD2F1 (CDF1) mice. Particulars: endpoint: median survival time, higher = longer survival. In a few lines:
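Mice carrying the transplanted tumor received test compound or vehicle. Survival was recorded in each group, and the value is the treated-group measurement divided by that of the vehicle-treated control group.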

[1] abbreviates: dose: 25.0 mg/kg/injection, schedule: Q01DX009 (ip), vehicle: saline with Tween-80.
Setting [2] is: dose: 50.0 mg/kg/injection, schedule: Q01DX009 (ip), vehicle: saline with Tween-80.
[3] abbreviates: dose: 100.0 mg/kg/injection, schedule: Q01DX009 (ip), vehicle: saline with Tween-80.
[4] abbreviates: dose: 50.0 mg/kg/injection, schedule: Q01DX009 (ip), vehicle: Klucel (hydroxypropylcellulose) (HPC).
Setting [5] is: dose: 100.0 mg/kg/injection, schedule: Q01DX009 (ip), vehicle: Klucel (hydroxypropylcellulose) (HPC).
Where [6] appears, read: dose: 200.0 mg/kg/injection, schedule: Q01DX009 (ip), vehicle: Klucel (hydroxypropylcellulose) (HPC).
Setting [7] is: dose: 50.0 mg/kg/injection, schedule: Q01DX005 (ip), vehicle: saline with Tween-80.
The mark [8] stands for this setting: dose: 100.0 mg/kg/injection, schedule: Q01DX005 (ip), vehicle: saline with Tween-80.
The mark [9] stands for this setting: dose: 200.0 mg/kg/injection, schedule: Q01DX005 (ip), vehicle: saline with Tween-80.
Where [10] appears, read: dose: 6.25 mg/kg/injection, schedule: Q01DX009 (ip), vehicle: saline.
Where [11] appears, read: dose: 12.5 mg/kg/injection, schedule: Q01DX009 (ip), vehicle: saline.
The mark [12] stands for this setting: dose: 25.0 mg/kg/injection, schedule: Q01DX009 (ip), vehicle: saline.
The mark [13] stands for this setting: dose: 200.0 mg/kg/injection, schedule: Q01DX009 (ip), vehicle: saline with Tween-80.
[14] abbreviates: dose: 50.0 mg/kg/injection, schedule: Q04DX003 (ip), vehicle: saline with Tween-80.
Where [15] appears, read: dose: 6.25 mg/kg/injection, schedule: Q01DX009 (ip), vehicle: saline with Tween-80.
Setting [16] is: dose: 12.5 mg/kg/injection, schedule: Q01DX009 (ip), vehicle: saline with Tween-80.

For `CC12C=C3CC(OC(=O)c4ccccc4)CCC3(O1)c1ccccc12` (centres undefined), the T/C is 99 % of control under setting [1], 105 % of control under setting [2] and 95 % of control under setting [3].
Turning to `CCOP(=S)(OCC)Oc1ccccc1`, the T/C is, setting by setting: (dose: 100.0 mg/kg/injection, schedule: Q04DX002 (ip), vehicle: saline) 104 % of control; (dose: 200.0 mg/kg/injection, schedule: Q04DX002 (ip), vehicle: saline) 113 % of control; (dose: 400.0 mg/kg/injection, schedule: Q04DX002 (ip), vehicle: saline) 115 % of control.
Regarding `O=C(CCCCl)NN=C(c1ccccc1)c1ccccc1`, the T/C is 100 % of control (dose: 42.0 mg/kg/injection, schedule: Q01DX009 (ip), vehicle: saline with Tween-80); 97 % of control (dose: 84.0 mg/kg/injection, schedule: Q01DX009 (ip), vehicle: saline with Tween-80); 95 % of control (dose: 168.0 mg/kg/injection, schedule: Q01DX009 (ip), vehicle: saline with Tween-80).
As for `CN(C)CCCOc1ccc(NC2=C(Cl)C(=O)C(Nc3ccc(OCCCN(C)C)cc3)=C(Cl)C2=O)cc1`, the T/C was 101 % of control (dose: 6.25 mg/kg/injection, schedule: Q01DX005 (ip), vehicle: suspension in saline); 101 % of control (dose: 12.5 mg/kg/injection, schedule: Q01DX005 (ip), vehicle: suspension in saline); 103 % of control (dose: 25.0 mg/kg/injection, schedule: Q01DX005 (ip), vehicle: suspension in saline).
Take `CCOC(=O)C1C(c2ccc(C)cc2)C(C#N)C(=O)NC1(O)c1ccccc1` (centres undefined): the T/C runs as follows: (dose: 100.0 mg/kg/injection, schedule: Q04DX002 (ip), vehicle: Klucel (hydroxypropylcellulose) (HPC)) 99 % of control; (dose: 200.0 mg/kg/injection, schedule: Q04DX002 (ip), vehicle: Klucel (hydroxypropylcellulose) (HPC)) 95 % of control; (dose: 400.0 mg/kg/injection, schedule: Q04DX002 (ip), vehicle: Klucel (hydroxypropylcellulose) (HPC)) 98 % of control.
As for `Cc1cc(C2(O)CCCc3ccccc32)[n+]([O-])cc1C` (centres undefined), the T/C by setting is: (dose: 50.0 mg/kg/injection, schedule: Q01DX005 (ip), vehicle: saline + Tween-80 + alcohol) 106 % of control; (dose: 100.0 mg/kg/injection, schedule: Q01DX005 (ip), vehicle: saline + Tween-80 + alcohol) 104 % of control; (dose: 200.0 mg/kg/injection, schedule: Q01DX005 (ip), vehicle: saline + Tween-80 + alcohol) 107 % of control.
Consider `CCOC(=O)C1(n2[nH]c(=O)n(-c3ccccc3)c2=O)CC(C)OC1=O` (centres undefined), for which the T/C under setting [4] was 94 % of control, the T/C under setting [5] was 91 % of control and the T/C under setting [6] was 91 % of control.
For `Cc1cccc(C(O)c2cnc(C)n2Cc2ccccc2)c1` (centres undefined), the T/C by setting is: (dose: 60.0 mg/kg/injection, schedule: Q01DX005 (ip), vehicle: Klucel (hydroxypropylcellulose) (HPC)) 101 % of control; (dose: 120.0 mg/kg/injection, schedule: Q01DX005 (ip), vehicle: Klucel (hydroxypropylcellulose) (HPC)) 109 % of control; (dose: 240.0 mg/kg/injection, schedule: Q01DX005 (ip), vehicle: Klucel (hydroxypropylcellulose) (HPC)) 100 % of control.
Take `Cc1cc(NC(=O)c2ccc(NC(=O)c3ccc(N)cc3)cc2)ccc1N=Nc1ccc2c(O)c(N=Nc3ccc4cc(S(=O)(=O)O)ccc4c3)c(S(=O)(=O)O)cc2c1`: the T/C by setting is: under setting [7], 94 % of control; under setting [8], 103 % of control; under setting [9], 94 % of control.
`CN1C(=O)C2(C)SSC1(C)C(=O)N2C`: the T/C is, setting by setting: under setting [10], 110 % of control; under setting [11], 108 % of control; under setting [12], 107 % of control.
Regarding `CSC(=S)N/N=C(\C)c1cccs1`, the T/C by setting is: under setting [2], 91 % of control; under setting [3], 111 % of control; under setting [13], 110 % of control.
Consider `CCOC(=O)CCCCCNc1nc(Cl)nc(Cl)n1`, for which the T/C is, setting by setting: under setting [2], 98 % of control; under setting [3], 103 % of control; under setting [13], 87 % of control.
In the case of `CC1=CC(=O)[C@@H](O)[C@]2(C)[C@H]3[C@@]4(O)OC[C@]35[C@H]([C@@H](C)[C@H]4O)[C@@H](O)C(=O)O[C@@H]5C[C@@H]12`, the T/C was 115 % of control under setting [10], 104 % of control under setting [11] and 115 % of control under setting [12].
`CCOC(=O)C1=C(NC(=O)Nc2ccccc2)N(C(=O)Nc2ccccc2)CCC1`: the T/C reads like this: (dose: 100.0 mg/kg/injection, schedule: Q04DX003 (ip), vehicle: Klucel (hydroxypropylcellulose) (HPC)) 100 % of control; (dose: 200.0 mg/kg/injection, schedule: Q04DX003 (ip), vehicle: Klucel (hydroxypropylcellulose) (HPC)) 99 % of control; (dose: 400.0 mg/kg/injection, schedule: Q04DX003 (ip), vehicle: Klucel (hydroxypropylcellulose) (HPC)) 102 % of control.
For `CCOC(=O)/C=C(\C)NC1CC(OC2CC(O)(C(=O)CO)Cc3c(O)c4c(c(O)c32)C(=O)c2c(OC)cccc2C4=O)OC(C)C1O` (centres undefined), the T/C was 119 % of control (dose: 6.25 mg/kg/injection, schedule: Q04DX003 (ip), vehicle: saline with Tween-80); 113 % of control (dose: 12.5 mg/kg/injection, schedule: Q04DX003 (ip), vehicle: saline with Tween-80); 172 % of control under setting [14].
For the compound `Nc1cccc2c1C(=O)c1cccc(N)c1C2=O`, the T/C reads like this: under setting [7], 100 % of control; under setting [4], 97 % of control; under setting [8], 91 % of control; under setting [5], 100 % of control; under setting [9], 100 % of control; under setting [6], 108 % of control. Also, the T/C (dose: 400.0 mg/kg/injection, schedule: Q01DX009 (ip), vehicle: Klucel (hydroxypropylcellulose) (HPC)) was 104 % of control.
Turning to `O=C(N/N=C/c1ccco1)C(=O)Nc1ccc(Cl)c([N+](=O)[O-])c1`, the T/C was 91 % of control under setting [7], 89 % of control under setting [8] and 105 % of control under setting [9].
For `Clc1ccc(N=Cc2cccs2)c(Cl)c1`, the T/C was 118 % of control under setting [4], 107 % of control under setting [5] and 110 % of control under setting [6].
Regarding `O=C(O)CNCCCNCC(=O)O`, the T/C by setting is: (dose: 50.0 mg/kg/injection, schedule: Q01DX005 (ip), vehicle: saline) 94 % of control; (dose: 100.0 mg/kg/injection, schedule: Q01DX005 (ip), vehicle: saline) 88 % of control; (dose: 200.0 mg/kg/injection, schedule: Q01DX005 (ip), vehicle: saline) 99 % of control.
Consider `CC1(C)OC2OC(CN=NNc3ccc([N+](=O)[O-])cc3)C3OC(C)(C)OC3C2O1` (centres undefined), for which the T/C was 100 % of control (dose: 60.0 mg/kg/injection, schedule: Q01DX005 (ip), vehicle: Klucel + Tween-80); 91 % of control (dose: 120.0 mg/kg/injection, schedule: Q01DX005 (ip), vehicle: Klucel + Tween-80); 87 % of control (dose: 240.0 mg/kg/injection, schedule: Q01DX005 (ip), vehicle: Klucel + Tween-80).
Take `O=C(/C=C/c1ccccc1)c1ccc(O)cc1`: the T/C under setting [15] was 103 % of control; the T/C under setting [16] is 109 % of control; the T/C under setting [1] is 110 % of control; the T/C under setting [14] was 98 % of control; the T/C (dose: 100.0 mg/kg/injection, schedule: Q04DX003 (ip), vehicle: saline with Tween-80) was 98 % of control; the T/C (dose: 400.0 mg/kg/injection, schedule: Q04DX003 (ip), vehicle: saline with Tween-80) was 114 % of control.
With `O=C1c2ccccc2C(=O)N1Cc1ccccc1[N+](=O)[O-]`, the T/C under setting [15] was 95 % of control; the T/C under setting [16] is 88 % of control; the T/C under setting [1] is 89 % of control; the T/C (dose: 100.0 mg/kg/injection, schedule: Q01DX009 (ip), vehicle: saline) was 98 % of control; the T/C (dose: 200.0 mg/kg/injection, schedule: Q01DX009 (ip), vehicle: saline) was 102 % of control.
As to `C=C(C)C(=O)OC1C(C(C)CCCO)=C(CO)CC2OC(=O)C(=C)C21` (centres undefined), the T/C by setting is: (dose: 3.12 mg/kg/injection, schedule: Q01DX009 (ip), vehicle: saline + alcohol) 108 % of control; (dose: 6.25 mg/kg/injection, schedule: Q01DX009 (ip), vehicle: saline + alcohol) 112 % of control; (dose: 12.5 mg/kg/injection, schedule: Q01DX009 (ip), vehicle: saline + alcohol) 118 % of control; (dose: 25.0 mg/kg/injection, schedule: Q01DX009 (ip), vehicle: saline + alcohol) 111 % of control.
